Data published in patent publication US20050031597A1, “Cells and improved method for preserving cells” (priority 2003, published 2005).
Like-named read-outs stand apart in the source and are kept apart here.

Assays:
human platelets = assay: Loading of platelets with trehalose (anthrone reaction); type: cell-based; details: for trehalose uptake: 37° C.; for loading efficiency of trehalose: 4 hour incubation, 50 mM external trehalose
Description: Washing of Platelets. Platelet concentrations were obtained from the Sacramento blood center or from volunteers in our laboratory. Platelet rich plasma was centrifuged for 8 minutes at 320×g to remove erythrocytes and leukocytes. The supernatant was pelleted and washed two times (480×g for 22 minutes, 480×g for 15 minutes) in buffer A (100 MM NaCl, 10 MM KCl, 10 mM EGTA, 10 mM imidazole, pH 6.8). Platelet counts were obtained on a Coulter counter T890 (Coulter, Inc., Miami, Fla.).
Loading of Platelets with Trehalose. Washed platelets in a concentration of 1-2 10^9 platelets/ml were incubated at various temperatures in the presence of 1-20 mg/ml trehalose. Incubation temperatures were chosen from 4° C. to 37° C. Incubation times were varied from 0.5 to 4 hours. After incubation the platelet solutions were washed in buffer A two times (by centrifugation at 14,000 RPM for 20 s in a table centrifuge). Platelet counts were obtained on a coulter counter. Platelets were pelleted (45 S at 14,000 RPM) and sugars were extracted from the pellet using 80% methanol. The samples were heated for 30 minutes at 80° C. The methanol was 10 evaporated with nitrogen, and the samples were kept dry and redissolved in H2O prior to analysis. The amount of trehalose in the platelets was quantified using the anthrone reaction (Umbreit et al., Mamometric and Biochemical Techniques, 5th Edition, 1972). Samples were redissolved in 3 ml H2O and 6 ml anthrone reagents (2 g anthrone dissolved in 10M sulfuric acid). After vortex mixing, the samples were placed in a boiling water bath for 3 minutes. Then the samples were cooled on ice and the absorbance was measured at 620 nm on a Perkin Elmer spectrophotometer. The amount of platelet associated trehalose was determined using a standard curve of trehalose.
Quantification of Trehalose and LYCH Concentration. Uptake was calculated for each sample as micrograms of trehalose or LYCH per platelet. The internal trehalose concentration was calculated assuming a platelet radius of 1.2 μm and by assuming that 50% of the platelet volume is taken up by the cytosol (rest is membranes). The loading efficiency was determined from the cytosolic trehalose or LYCH concentration and the concentration in the loading buffer.

erythrocytic cells [1] = assay: ATP level of erythrocytic cells; type: cell-based
From the text: (§1) Levels of ATP and DPG may be measured or assayed in biological samples (e.g., in cells) by any suitable means or procedure. By way of example only, levels of ATP and DPG may be measured or assayed in biological samples (e.g., in cells) by using Sigma Diagnostic (Sigma Aldrich Chemicals, St. Louis, Mo.) assay kits (cat. # for ATP assay 366 and 366-A, and for 2,3-DPG assay 35-A) designed for determination of ATP and 2,3-DPG in biological samples (e.g., red blood cells). By further way of example only, biological samples (e.g., cells) may be lysed using 12% and 8% trichloracetic acid for ATP and 2,3-DPG determination, respectively. ATP may be quantified enzymatically by catalyzing ATP to ADP in the presence of 3-phosphoglycerate (3-PGA) using phosphoglycerate phosphokinase (PGK) and the resulting 1,3-diphosphoglycerate induced oxidation of NADH to NAD using glyceraldehyde phosphate dehydrogenase (GAPD) present in the assay media. The level of NADH may be monitored spectrophotometrically at 340 nm which corresponds directly with the ATP level. 2,3-DPG may be hydrolyzed by 2,3-DPG phosphatase to 3-PGA and inorganic phosphorus in the presence of 2-phosphoglycolic acid as a stimulator. 3-PGA reacts with ATP in the presence of PGK and the subsequent steps follow the above protocol used for ATP quantification. […]

erythrocytic cells [2] = assay: 2,3-DPG level of erythrocytic cells; type: cell-based
From the text: as §1

erythrocytic cells [3] = assay: Hemolysis / survival of freeze-dried and rehydrated erythrocytic cells
Description: Cells were loaded in either 800 mM trehalose, 100 mOsm ADSOL, 6.6 mM Na-phosphate (FIG. 21, data set labeled as 800 mM treh) or in 800 mM trehalose, 100 mOsm ADSOL, 6.6 mM Na-phosphate and 1.2 mg/ml α-crystallin (FIG. 21, data set labeled as +α-crystallin 1.2 mg/ml). Cells were subsequently mixed with freeze-drying buffer with final concentration of 250 mM trehalose, 20 mOsm ADSOL, 15% HES and 2.5% HSA and were freeze-dried. After freeze-drying they were directly rehydrated (no pre-hydration) in 141 mM trehalose, 75 mOsm PBS, 11.25% HES and 1.875% HSA. […] In the third data set of FIG. 21, along with 1.2 mg/ml α-crystallin, there was 0.5 mg/ml α-crystallin added to the rehydration buffer.
Rehydration experiments were performed combining α-crystallin and Zn^2+ ions, and applying 5 min pre-hydration.
The cells were loaded in media with different trehalose concentration (400, 500, 600, 700 and 800 mM trehalose) in 100 mOsm PBS pH 7.2. The cells were freeze-dried in 300 mM trehalose in 100 mOsm PBS, 15% HES and 2.54% HSA and rehydrated in a buffer containing 188 mM trehalose, 15% HES and 2.5% HSA.
Loading buffer comprised 800 mM trehalose in a salt solution of 100 mOsm PBS. The incubation time was 16 hours at a temperature of about 35° C. After the cells were loaded, they were subsequently washed in a washing buffer comprising 300 mM in a salt solution of 100 mOsm PBS. Within 3 hours after washing the loaded cells, the wash loaded cells were freeze-dried in freeze-drying buffer comprising about 300 mM trehalose, about 100 mOsm PBS, about 2.5% by wt. HSA, and about 15% by wt. HES. After the freeze-drying procedure the cells had about 75 mM trehalose, about 25 mOsm PBS, about 0.6% by wt. HSA and about 4.0% by wt. HES left in the cells. The freeze-dried cells were then reconstituted at about 37° C. for about 10 minutes in a rehydration buffer comprising about 188 mM trehalose, about 100 mOsm PBS, about 2.5% by wt.

With `OC[C@H]1O[C@H](O[C@H]2O[C@H](CO)[C@@H](O)[C@H](O)[C@H]2O)[C@H](O)[C@@H](O)[C@@H]1O` [trehalose] as the compound, how does the trehalose uptake (human platelets; after 2 hours, rapid linear uptake) read?
Its trehalose uptake is 3.3×10^−10 mol/m^2s.

And the trehalose uptake (human platelets; from 0 to 2 hours)?
The trehalose uptake was 2.8×10^−11 mol/m^2s.

What about the “loading efficiency of trehalose” value (human platelets; 22° C. and below) of the same compound?
Its value is “below 5%”.

What about the “loading efficiency of trehalose” value (human platelets; 37° C. (FIG. 1)) of the same compound?
Its value is 35%.

And the loading efficiency (human platelets; time course at 37° C., incubation period of 4 hours (FIG. 2))?
Its loading efficiency is 61%.

And the “level of ATP” value (erythrocytic cells [1]; 37° C., during 16 hours of incubation)?
Its value is “does not decrease”.

What about the “level of ATP” value (erythrocytic cells [1]; trehalose solute solution, about 37° C., about 0 to about 7 hours, increases from about 4.0) of the same compound?
The value was “about 4.5 μmol/gHb”.

What about the “level of 2,3-DPG” value (erythrocytic cells [2]; 37° C., first 7 hours of incubation) of the same compound?
Its value is “high”.

What about the “level of 2,3-DPG” value (erythrocytic cells [2]; 7 hours incubation at about 37° C. in a trehalose containing solution) of the same compound?
Its value is “about 8.5 μmol/gHb”.

And the “biconcave shape and cell integrity of rehydrated cells” value (erythrocytic cells [3]; 60 mM cytoplasmic trehalose, freeze-dried and rehydrated (FIG. 14))?
Its value is “well preserved”.

What about the “cells lysed after rehydration” value (erythrocytic cells [3]; protocol of Example 12: loaded 800 mM trehalose/100 mOsm PBS, freeze-dried and rehydrated with trehalose, PBS, HSA, HES) of the same compound?
Its value is “less than 5%”.

What about the hemolysis at 100000 µM (erythrocytic cells [3]; read-out: % hemolysis of rehydrated cells) of the same compound?
The hemolysis at 100000 µM was under 10%.

What about the hemolysis at 800000 µM (erythrocytic cells [3]; read-out: hemolysis after freeze-drying and direct rehydration) of the same compound?
The hemolysis at 800000 µM was 63%.

And the hemolysis at 800000 µM (erythrocytic cells [3]; read-out: percent hemolysis after freeze-drying and direct rehydration)?
Its hemolysis at 800000 µM is 68%.
